Legend:
IL-5 production = assay: In vitro inhibition of IL-5 production in human blood; assay type: cell-based; conditions: test dose 1×10^−6 M; human whole blood stimulated with phytohemagglutinin, 48 hours, ELISA
Experimental: In Vitro Inhibition of IL-5 Production in Human Blood
Human Whole Blood Stimulation
Peripheral blood from healthy male donors was drawn into heparinized syringes (12.5 U heparin/ml). Blood samples were three-fold diluted in RMPI 1640 medium (Life Technologies, Belgium) supplemented with 2 mM L-glutamine, 100 U/ml penicillin and 100 μg/ml streptomycin, and 300 μl fractions were distributed in 24-well multidisc plates. Blood samples were preincubated (60 minutes at 37° C.) in a humidified 6% CO2-atmosphere with 100 μl of drug solvent (final concentration 0.02% dimethylsulfoxide in RPMI 1640) or with 100 μl of an appropriate dose of test compound before being stimulated by the addition of 100 μl of phytohemagglutinin HA17 (Murex, UK) at a final concentration of 2 μg/ml. After 48 hours, cell-free supernatant fluids were collected by centrifugation and stored at −70° C. until tested for the presence of IL-5.
IL-5 measurements were conducted as described in Van Wauwe et al. (1996, Inflamm Res, 45, 357-363) on page 358 using ELISA.
Table 8 lists the percentage inhibition of IL-5 production (column “% inhibition”) at a test dose of 1×10^−6 M, or in case the percentage inhibition is marked with an “*” 1×10^−5 M, for the compounds of the present invention including compounds of formula (I) which have been disclosed in U.S. Pat. No. 4,631,278 (Ref. A) or U.S. Pat. No. 4,767,760 (Ref: B) as summarized in table 7.

Row | melting point | Structure (SMILES) | inhibition at 1 µM (IL-5 production)
1 | 140 °C | CN(C)CCCC(C#N)(c1ccc(Cl)cc1)c1ccc(-n2ncc(=O)[nH]c2=O)cc1Cl (racemic) [1.58, (±)-2-chloro-α-(4-chlorophenyl)-4-(4,5-dihydro-3,5-dioxo-1,2,4-triazin-2(3H)-yl)-α-[3-(dimethylamino)propyl]-benzeneacetonitrile] | 28%
2 |  | CC(C(N)=S)(c1ccc(Cl)cc1)c1ccc(-n2ncc(=O)[nH]c2=O)cc1Cl (racemic) [1.21, (±)-2-chloro-α-(4-chlorophenyl)-α-methyl-4-(4,5-dihydro-3,5-dioxo-1,2,4-triazin-2(3H)-yl)benzeneethanethioamide] | 33%
3 |  | CON(C)C(=O)C(c1ccc(Cl)cc1)c1ccc(-n2ncc(=O)[nH]c2=O)cc1Cl (racemic) [1.6, (±)-2-chloro-α-(4-chlorophenyl)-N-methoxy-N-methyl-4-(4,5-dihydro-3,5-dioxo-1,2,4-triazin-2(3H)-yl)benzeneacetamide] | 49%
4 |  | N#CC(c1ccc(Cl)c(C(F)(F)F)c1)c1cc(-n2ncc(=O)[nH]c2=O)ccc1Cl (stereo not shown) [1.37] | 12%
5 |  | O=C(c1nc2ccccc2s1)C(c1ccc(Cl)cc1)c1ccc(-n2ncc(=O)[nH]c2=O)cc1Cl (racemic) [1.20, (±)-2-[4-[2-(2-benzothiazolyl)-1-(4-chlorophenyl)-2-oxoethyl]-3-chlorophenyl]-1,2,4-triazin-3,5(2H,4H)-dione] | 80%
6 |  | CC(C#N)(c1ccc(Cl)cc1)c1c(Cl)cc(-n2ncc(=O)[nH]c2=O)cc1Cl (racemic) [1.11, (±)-2,6-dichloro-α-(4-chlorophenyl)-4-(4,5-dihydro-3,5-dioxo-1,2,4-triazin-2(3H)-yl)-α-methylbenzeneacetonitrile] | 12%
7 |  | CC(C#N)(c1ccc(Cl)c(C(F)(F)F)c1)c1cccc(-n2ncc(=O)[nH]c2=O)c1Cl (racemic) [1.36, (±)-4-chloro-α-[2-chloro-3-(4,5-dihydro-3,5-dioxo-1,2,4-triazin-2(3H)-yl)phenyl]-α-methyl-3-(trifluoromethyl)benzeneacetonitrile] | 44%
8 |  | CC(C#N)(c1ccc(Cl)c(C(F)(F)F)c1)c1c(Cl)cc(-n2ncc(=O)[nH]c2=O)cc1Cl (racemic) [1.7, (±)-2,6-dichloro-α-[4-chloro-3-(trifluoromethyl)phenyl]-4-(4,5-dihydro-3,5-dioxo-1,2,4-triazin-2(3H)-yl)-α-methylbenzeneacetonitrile] | 92%
9 |  | CC(C#N)(c1ccc(Cl)c(C(F)(F)F)c1)c1cc(-n2ncc(=O)[nH]c2=O)ccc1Cl (stereo not shown) [1.35] | 33%
10 | 206.3 °C | N#CC(c1ccc(Cl)cc1)c1ccc(-n2ncc(=O)[nH]c2=O)cc1 (stereo not drawn) [1.41, α-(4-chlorophenyl)-4-(4,5-dihydro-3,5-dioxo-1,2,4-triazin-2(3H)-yl) benzeneacetonitrile] | 13%
11 |  | CNC(=O)C(C)(c1ccc(Cl)cc1)c1ccc(-n2ncc(=O)[nH]c2=O)cc1Cl (racemic) [1.14, (±)-2-chloro-α-(4-chlorophenyl)-4-(4,5-dihydro-3,5-dioxo-1,2,4-triazin-2(3H)-yl)-α,N-dimethylbenzeneacetamide] | 9%

— US6951857B2, “6-Azauracil derivatives as IL-5 inhibitors” (priority 1997, dated 2005)
